Where a SMILES comes first, the peptide text is derived from it. Where no end group is shown, it is not given here. The star is where a group is joined. Cbz = O=C(OCc1ccccc1)*
Experiments:
Thermal CD spectroscopy = assay type: physicochemical; conditions: CD 37°C to 77°C in 10°C steps, 5 mM Tris–HCl pH 7.5
Method: CD spectra were obtained on a Jasco J-715 spectropolarimeter with 400 µL of 8.0×10^-7 M protein in 5 mM Tris–HCl pH 7.5. Hellman quartz cells of 0.1-cm-path length were used in the far UV (190–250 nm). The temperature of the sample cell was regulated by a PTC-348 WI thermostat and thermal CD was performed from 250 to 195 nm by raising the cell temperature from 37°C to 77°C. The thermal CD spectra were signal-averaged by combining three scans and the baseline was corrected by subtracting a buffer spectrum. The samples were then cooled back to 37°C to monitor the final folding of the peptides.

human APEH = molecular target: T1, human APEH (Homo sapiens, UniProt P13798); assay: Inhibition of human APEH purified from Caco-2 cells; assay type: biochemical; conditions: human APEH from Caco-2 cells, Ac-Ala-pNA; data not shown
T1 construct: Partial purification of human APEH and proteasome was carried out from protein extracts of Caco-2 cell; endogenous in cells; host or cells: Caco-2
T1 sequence (P13798 1-732): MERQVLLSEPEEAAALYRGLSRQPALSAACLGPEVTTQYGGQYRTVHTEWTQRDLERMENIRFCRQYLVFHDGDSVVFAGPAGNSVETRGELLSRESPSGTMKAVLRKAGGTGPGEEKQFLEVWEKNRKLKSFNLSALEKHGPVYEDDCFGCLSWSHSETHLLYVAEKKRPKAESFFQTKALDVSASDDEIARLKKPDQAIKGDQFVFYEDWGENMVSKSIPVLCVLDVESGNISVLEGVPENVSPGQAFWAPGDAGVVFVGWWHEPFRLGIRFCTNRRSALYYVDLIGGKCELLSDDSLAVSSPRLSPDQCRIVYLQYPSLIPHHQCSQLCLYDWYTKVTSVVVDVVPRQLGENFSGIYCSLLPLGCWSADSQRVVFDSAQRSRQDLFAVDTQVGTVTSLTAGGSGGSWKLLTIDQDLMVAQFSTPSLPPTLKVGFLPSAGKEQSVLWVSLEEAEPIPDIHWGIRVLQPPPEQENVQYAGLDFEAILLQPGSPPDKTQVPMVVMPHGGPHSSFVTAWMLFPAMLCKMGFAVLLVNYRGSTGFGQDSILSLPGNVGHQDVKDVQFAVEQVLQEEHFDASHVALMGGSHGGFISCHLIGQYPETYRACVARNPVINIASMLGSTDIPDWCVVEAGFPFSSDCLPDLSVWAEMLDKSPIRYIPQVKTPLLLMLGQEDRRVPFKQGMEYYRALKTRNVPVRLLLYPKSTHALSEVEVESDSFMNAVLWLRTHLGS
Method: APEH from Sulfolobus solfataricus was purified as previously reported. Partial purification of human APEH and proteasome was carried out from protein extracts of Caco-2 cell. Briefly, protein extracts (500 µg) were fractionated by gel filtration chromatography on a Superdex 200 PC 3.2/30 column connected to a SMART System (Pharmacia) equilibrated in buffer 50 mM Tris-HCl, pH 7.5, 100 mM NaCl, at 0.1 mL/min. The eluted fractions were assayed using the specific substrates for APEH and the proteasome. The active fractions were collected and used for further analysis.
(§1) APEH activity was expressed in IU.
(§2) Protease inhibitor activities of the SsCEI peptides and the CLA isomers were carried out using a fixed amount of APEH or partially purified proteasome (3–5 nM and 0.12 mg/mL, respectively), and increasing the SsCEI and CLA isomer concentrations. Mixtures were pre-incubated for 30 min at 37°C before the addition of the substrate, and the enzymatic activities were followed as described above. Protease inhibitor activities of the SsCEI peptides and the CLA isomers were determined towards APEHSs. The protease and increasing concentrations of the inhibitors were mixed and preincubated for 30 min at 80°C before the addition of the specific substrate. The residual enzymatic activity was determined using the assay procedure described above.

bovine α-chymotrypsin = bovine α-chymotrypsin (Bos taurus, UniProt P00766); assay: Serine protease selectivity panel: α-chymotrypsin; assay type: biochemical; conditions: increasing peptide concentrations, hyperbolic fit (Figure S3); read-out: IC50 towards bovine α-chymotrypsin
[1] = Enzymatic stability in 10% FBS; assay type: in vitro ADME; conditions: method as ref 19, data not shown
porcine APEH [2] = molecular target: T2, porcine APEH (Sus scrofa, UniProt P19205); assay: Time-dependent inhibition of APEH; assay type: biochemical; conditions: pre-incubation at least 20 min at 37°C, then diluted 1:5 into assay mixture with substrate
T2 construct: mammalian APEHs purified from both porcine liver and human colon carcinoma intestinal cells (Caco-2); purchased Takara; host or cells: porcine liver
T2 sequence (P19205 1-732): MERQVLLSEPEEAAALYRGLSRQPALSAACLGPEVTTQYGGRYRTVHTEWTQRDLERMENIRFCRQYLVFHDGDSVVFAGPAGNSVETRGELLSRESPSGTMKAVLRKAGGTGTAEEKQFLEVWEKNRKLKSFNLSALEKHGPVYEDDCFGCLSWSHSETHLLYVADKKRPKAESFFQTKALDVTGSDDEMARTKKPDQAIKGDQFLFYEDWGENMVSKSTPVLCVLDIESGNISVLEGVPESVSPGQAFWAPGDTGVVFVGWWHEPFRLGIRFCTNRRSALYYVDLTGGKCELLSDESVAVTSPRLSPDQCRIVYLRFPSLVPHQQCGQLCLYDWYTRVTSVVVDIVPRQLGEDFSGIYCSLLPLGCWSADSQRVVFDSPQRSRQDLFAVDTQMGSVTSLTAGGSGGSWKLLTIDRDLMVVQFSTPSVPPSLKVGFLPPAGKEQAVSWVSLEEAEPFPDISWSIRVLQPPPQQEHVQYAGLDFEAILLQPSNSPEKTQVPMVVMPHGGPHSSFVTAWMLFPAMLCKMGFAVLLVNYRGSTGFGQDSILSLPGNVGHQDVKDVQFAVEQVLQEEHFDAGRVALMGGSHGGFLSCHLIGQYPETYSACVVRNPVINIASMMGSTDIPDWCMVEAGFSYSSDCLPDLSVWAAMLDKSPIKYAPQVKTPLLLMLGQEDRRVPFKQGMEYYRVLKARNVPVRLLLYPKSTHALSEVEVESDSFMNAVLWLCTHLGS
Method: The time-dependent inhibition of SsCEI 4 and t10c12-CLA towards APEH was assessed. Mixtures containing appropriate amounts of each inhibitor and of APEH were pre-incubated for 20 min at 37°C; they were then diluted (1∶5) into the standard assay mixture, which contained the substrate only. The enzymatic activity was followed as described above. Control samples were prepared by pre-incubating the same amounts of APEH without the inhibitors and then diluted in the standard assay mixture.

porcine APEH [3] = molecular target: T2, porcine APEH; assay: APEH inhibition in a reaction mixture containing the entire set of proteases; assay type: biochemical; conditions: mixture with trypsin, α-chymotrypsin, elastase, carboxypeptidase Y, subtilisin, thrombin; data not shown
Caco-2 cells = assay: LDH release cytotoxicity assay in Caco-2 cells; conditions: 48 h; for toxicity (LDH release) compared with MG132: 200 µM SsCEI 4 or t10c12-CLA, 100 µM ebelactone, MG132 10 µM
Method: The release of LDH was used as the marker for cell toxicity [48]. The culture supernatants were sampled at the end of the incubations and centrifuged (4,000×g, 5 min, and 4°C). Aliquots of the clear supernatant (10 µL) were incubated with 190 µL reaction buffer (200 mM Tris/HCl, pH 8.0, 0.7 mM p-iodonitrotetrazolium violet, 50 mM L-lactic acid, 0.3 mM phenazine methoxysulphate, 0.4 mM NAD,) for 30 min at 37°C. Absorbance was measured at 490 nm and the results were expressed as percentages of total LDH release from control cultures treated with 1% (w/v) Triton X-100 and calculated as: [(experimental value - blank value)/(total lysis -blank value)−100].

porcine APEH [4] = molecular target: T2, porcine APEH; assay: RP-HPLC analysis of SsCEI 4 incubated with the target enzyme; assay type: in vitro ADME; conditions: 50 mM Tris pH 7.5, 37°C, up to 2 h, RP-HPLC C18, UV, printed 4 µM SsCEI 4 and 100 µM APEH
Method: The experiments were conducted at 37°C in 50 mM Tris buffer, pH 7.5. Solutions of SsCEI 4 and porcine APEH were incubated for up to 2 h at optimal concentrations (4 µM SsCEI 4 and 100 µM APEH) to guarantee a high degree of enzymatic inhibition. At specific time intervals, 195 µL aliquots were taken, and the reaction was stopped by addition of 5 µL TFA. The samples were then analysed directly by reverse-phase HPLC (Dionex BioLC) on a μBondapak C18 column (3.9×300 mm, Waters), eluted with a linear gradient (0–60% acetonitrile in 0.1% TFA) at a flow rate of 1 ml/min. Control peptide samples were incubated in the absence of the purified enzymes and run in parallel.

BHK cells = assay: Cytotoxicity in BHK cells; assay type: cell-based, Baby Hamster; conditions: 100 µM, 24 h or 48 h; data not shown
Method: The cells were plated in 12-well plates, to a confluence of 60% for the 24-h incubations, and 40% for 48-h exposure to PIs. These treatments were initiated 24-h after the plating of the cells. Phase-contrast images of the cells were taken just before the lysis of the cells for protein analysis, using a Lica DM6000 inverted microscope.

APEH in Caco-2 cells = assay: APEH activity in Caco-2 cells; conditions: differentiated Caco-2 cells
Method: Porcine liver APEH activity was measured spectrophotometrically using the chromogenic substrate acetyl-Ala-pNA (Bachem). The reaction mixture (1 mL) containing pure APEH (38 ng) or an appropriate amount of cell extract in 50 mM Tris-HCl buffer pH 7.5 (Tris Buffer), was preincubated at 37°C for 2 min. Then, 1 mM acetyl-Ala-pNA was added and the release of p-nitroanilide (ε410 = 8800 M-1 cm-1) was measured by recording the absorbance increase at 410 nm on a Cary 100 Scan (Varian) UV/Vis spectrophotometer, equipped with a thermostated cuvette compartment. APEH activity was expressed in IU. The APEHSs activity was measured using acetyl-Leu-pNA (0.1 mM) (Sigma) as substrate. The reaction mixture (1 mL) containing the appropriate amount of enzyme in 25 mM Tris-HCl buffer pH 7.5, was preincubated at 80°C for 2 min. Then, 0.1 mM acetyl-Leu-pNA was added and the release of p-nitroanilide was measured, following the standard assay procedure described above.
Caco-2 cells (ATCC) were cultivated in DMEM supplemented with 10% FBS, 1 mM glutamine and 100 units/mL penicillin-streptomycin at 37°C in a humidified 5% CO2 atmosphere. The cells were studied between passages 12 and 22. The cells were split using trypsin-EDTA solution and plated in 6-well plates at a density of 8×10^4 cells/mL and the medium was replaced every 2–3 days. Under these conditions, the cells reached visual confluence after 7 days and the differentiated stage two weeks later. The differentiated cells were incubated for 48 h with the different substances.
Following the treatments, the BHK and Caco-2 cells were washed three times with ice cold phosphate-buffered saline and collected immediately at 4°C in lysis buffer (1% Triton X-100, 0.1% SDS, 20 mM Tris-HCl, pH 8.0, 150 mM NaCl, 0.5% sodium deoxycholate and complete protease inhibitors [Roche]). The lysates were centrifuged at 10,000×g for 15 min at 4°C. The protein concentrations in the clear supernatants were determined (BCA protein assay reagent kit; Pierce) before their use in enzymatic assays or SDS–PAGE.

[5] = tested on: polyubiquitinylated proteins in Caco-2 cells; assay: Protein ubiquitinylation in Caco-2 cells (immunoblot); assay type: cell-based, human; conditions: 48 h, 200 µM SsCEI 4 or t10c12-CLA, mixture, 100 µM ebelactone, 10 µM MG132, species 66 kDa to 160 kDa
Excerpt: The following antibodies were used: anti-APEH antibody (sc-102311; Santa Cruz Biotechnology); anti-NF-κB/p65 antibody (Thermo Scientific); anti-p21Waf1 antibody (Exbio); pan Ab-5 anti-actin antibody (clone ACTN05, Thermo Scientific); and monoclonal antibodies against polyubiquitinylated proteins conjugated with horseradish peroxidase (FK2H, Enzo, Life Science). The ΔF508CFTR-3HA protein was detected with an anti HA monoclonal antibody (Covance).

porcine APEH [6] = molecular target: T2, porcine APEH; assay: Inhibition of porcine liver APEH, Ac-Ala-pNA substrate; assay type: biochemical; conditions: Ac-Ala-pNA, pre-incubated 30 min at 37°C
Method: as §1, §2
(§3) All data were obtained from triplicate analyses of three different preparations. Data were presented as means ±S.D. Statistical analysis and IC50 values were calculated with the SigmaPlot 10.0 software through a non-linear curve-fitting method and using a simple binding isotherm equation. Groups were compared by Student's t test, and P<0.05 was considered as significant.

APEHSs = assay: Inhibition of S. solfataricus APEH (APEHSs), Ac-Leu-pNA substrate; assay type: biochemical, Sulfolobus solfataricus; conditions: increasing inhibitor concentrations, Ac-Leu-pNA, pre-incubated 30 min at 80°C
Method: as §1, §2, §3

[7] = Stability in aqueous solution; assay type: physicochemical; conditions: at the concentrations required for CD analyses
[8] = Gel filtration (size-exclusion) analysis of oligomerization; assay type: physicochemical; conditions: 100 µM peptide
Method: Gel filtration chromatography was performed on a BioSep SEC-S2000 column equilibrated with 50 mM phosphate buffer pH 6.8, at a flow rate of 1.0 mL/min. A standard curve was built using a set of synthetic peptides with molecular weights between 1.500 amu and 2.500 amu. For this purpose, peptide aliquots were injected onto the column and a plot of KD versus log10 molecular weights (MW) was obtained, where KD = (Ve-Vo)/(VT-Vo), Ve is the elution volume of the sample, and VT and Vo are the total and void volumes of the column, respectively.

TILLEIKNINAD-NH2 [SsCEI 2]
structural stability with temperature (CD) (Thermal CD spectroscopy): considerable structural stability | IC50 towards human APEH relative to porcine APEH (human APEH): Comparable | IC50 (bovine α-chymotrypsin): 21.9 ± 6.4 µM

TILAEIKNINAD-NH2 [SsCEI 4]
IC50 towards human APEH relative to porcine APEH (human APEH): Comparable | enzymatic stability in 10% FBS [1]: completely stable for at least one week | inhibition of APEH after pre-incubation with the enzyme (porcine APEH [2]): 100% | inhibition efficiency and Ki towards APEH in presence of the entire protease set (porcine APEH [3]): comparable to those measured in the presence of the APEH alone | toxicity (LDH release) compared with MG132 (Caco-2 cells): significantly lower than that observed in culture incubated with MG132 | cytotoxic effect (LDH activity levels) (Caco-2 cells; up to highest concentration 200 µM): not associated with any cytotoxic effect | stability of peptide incubated with APEH (degradation / adducts) (porcine APEH [4]): neither peptide degradation nor covalent binding with APEH occurred | cytotoxic effects in BHK cells (BHK cells): without any cytotoxic effects | decrease of APEH activity in Caco-2 cells (APEH in Caco-2 cells; 200 µM, 48 h (maximum effect)): 70%

CC(C)C[C@@H](C=O)NC(=O)[C@H](CC(C)C)NC(=O)[C@H](CC(C)C)NC(=O)OCc1ccccc1 [MG132] (Cbz-Leu-Leu-Leu-aldehyde)
polyubiquitin conjugates in cell extract [5]: presence of high-molecular-mass immunoreactive species | effect on APEH activity in Caco-2 cells (APEH in Caco-2 cells; MG132 10 µM, 48 h): no detectable effects

CCCCCC/C=C/C=C\CCCCCCCC(=O)O [c9t11-CLA, cis9-trans11 CLA]
effect on porcine APEH activity (porcine APEH [6]): ineffective | effect on APEHSs activity (APEHSs): no significant modulatory effect

YAIDTILLEIKNINAD-NH2 [SsCEI 1]
stability in aqueous solution [7]: poor stability in aqueous solution

YAIDTILA EIKNINAD [SsCEI 3]
structural stability with temperature (CD) (Thermal CD spectroscopy): considerable structural stability | Measured mass value (apparent MW by gel filtration) ([8]; BioSep SEC-S2000, 50 mM phosphate pH 6.8, Da±SD, three independent determinations): 2012±150 Da | oligomerization state ([8]; size-exclusion chromatography): essentially monomers | effect on APEHSs activity (APEHSs): no detectable decrease

CC[C@@H](C)[C@@H](O)[C@H](C)C(=O)[C@H](C)/C=C(\C)C[C@H](C)[C@@H]1OC(=O)[C@H]1CC [ebelactone]
toxicity (LDH release) compared with MG132 (Caco-2 cells): significantly lower than that observed in culture incubated with MG132 | polyubiquitin conjugates in cell extract [5]: presence of high-molecular-mass immunoreactive species

Source: publication PMC3189933, “Acylpeptide Hydrolase Inhibition as Targeted Strategy to Induce Proteasomal Down-Regulation” (PLoS ONE, 2011)
